Test results: patent publication US4623662A, “Antiatherosclerotic ureas and thioureas” (American Cyanamid Company, priority 1985, dated 1986)

These molecules were tested against T1, fatty acyl CoA: cholesterol acyl transferase (ACAT) (Rattus norvegicus, UniProt O70536) (assay: Inhibition of fatty acyl CoA:cholesterol acyl transferase (ACAT), rat adrenal enzyme). Conditions: rat adrenal ACAT; final concentration 5.2 μg/ml; read-out: % Inhibition.
T1 construct: The supernatant, containing the microsomal fraction, served as the source of the cholesterol-esterifying enzyme; from tissue; host or cells: rat adrenals, supernatant of 1,000 x g centrifugation containing the microsomal fraction
T1 sequence (O70536 1-545): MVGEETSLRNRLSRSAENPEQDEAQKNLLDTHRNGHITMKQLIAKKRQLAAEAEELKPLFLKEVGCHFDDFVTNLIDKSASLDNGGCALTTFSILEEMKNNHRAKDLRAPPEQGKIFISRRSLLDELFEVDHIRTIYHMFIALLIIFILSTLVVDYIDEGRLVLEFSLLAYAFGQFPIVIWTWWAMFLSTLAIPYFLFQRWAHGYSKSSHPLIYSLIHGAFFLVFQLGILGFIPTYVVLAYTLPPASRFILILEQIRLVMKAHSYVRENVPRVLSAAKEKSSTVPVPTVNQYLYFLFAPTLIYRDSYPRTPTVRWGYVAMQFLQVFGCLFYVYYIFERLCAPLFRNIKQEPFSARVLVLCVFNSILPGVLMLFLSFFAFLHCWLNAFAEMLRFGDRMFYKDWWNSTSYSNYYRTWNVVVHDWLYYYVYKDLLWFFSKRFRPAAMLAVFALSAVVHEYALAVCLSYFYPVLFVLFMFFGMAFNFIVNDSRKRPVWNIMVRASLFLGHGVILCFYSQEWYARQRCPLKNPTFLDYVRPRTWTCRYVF
Assay type: biochemical
Summary of the method: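 Enzyme source was the microsomal supernatant of rat adrenal homogenate (0.2M potassium phosphate, pH 7.4) with BSA, preincubated with compound (5.2 μg/ml final for single-point) for 10 min at 37° C. Then [14C]oleoyl CoA added, 10 min at 37° C. TLC-separated cholesteryl ester was counted; percent inhibition versus control, IC50 from several concentrations.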

Row | inhibition at 5.2 µg/mL [%] | SMILES
1 | 95.7 | CCCCCCCN(CCc1ccccc1)C(=O)Nc1ccc(C)cc1C [1-(n-Heptyl)-1-(2-phenylethyl)-3-(2,4-dimethylphenyl)urea]
2 | 91.3 | CCCCN(Cc1ccccc1)C(=O)Nc1ccc(C)cc1C [1-Benzyl-1-(n-butyl)-3-(2,4-dimethylphenyl)urea]
3 | 85 | CCCCCOc1ccc(CN(Cc2ccc(CCCCC)cc2)C(=O)Nc2ccc(Cl)cc2Cl)cc1 [1-(4-n-Pentylbenzyl)-1-(4-n-pentyloxybenzyl)-3-(2,4-dichlorophenyl)urea]
4 | 92.4 | CCCCCCCN(Cc1ccc(CCCC)cc1)C(=O)Nc1ccc(C(=O)OCC)cc1 [1-(n-Heptyl)-1-(4-n-butylbenzyl)-3-(4-carboethoxyphenyl)urea]
5 | 86 | O=C(Nc1cc(Cl)c(Cl)cc1Cl)N(Cc1ccc(Cl)cc1)Cc1cccc2ccccc12 [1-(4-Chlorobenzyl)-1-(1-naphthylmethyl)-3-(2,4,5-trichlorophenyl)urea]
6 | 95.3 | CCCCCCCN(Cc1ccc(CCCC)cc1)C(=O)Nc1cc(C)c(C)cc1C [1-(n-Heptyl)-1-(4-n-butylbenzyl)-3-(2,4,5-trimethylphenyl)urea]
7 | 90.5 | CCCCc1ccc(CN(CCC(C)(C)C)C(=O)Nc2ccc(Cl)cc2C)cc1 [1-(3,3-Dimethylbutyl)-1-[4-(n-butyl)benzyl]-3-(4-chloro-2-methylphenyl)urea]
8 | 87.8 | CCCCN(Cc1ccccc1)C(=O)Nc1c(Cl)cc(Cl)cc1Cl [1-Benzyl-1-( -n-butyl)-3-(2,4,6-trichlorophenyl)urea]
9 | 91.8 | CCCCCCCN(CCc1ccccc1)C(=O)Nc1ccc(Cl)cc1Cl [1-(n-Heptyl)-1-(2-phenylethyl)-3-(2,4-dichlorophenyl)urea]
10 | 95.6 | CCCCCCCN(Cc1ccc(OCCCC)cc1)C(=O)Nc1cc(C)c(C)cc1C [1-(n-Heptyl)-1-(4-butyloxybenzyl)-3-(2,4,5-trimethylphenyl)urea]

Row | SMILES | inhibition at 5.2 µg/mL [%]
11 | CCCCOc1ccc(CN(Cc2ccccc2)C(=O)Nc2ccc(F)cc2F)cc1 [1-Benzyl-1-(4-n-butoxybenzyl)-3-(2,4-difluorophenyl)urea] | 88
12 | CCCCCCCN(Cc1ccc(OCCCC)cc1)C(=O)Nc1ccc(Cl)cc1C [1-(n-Heptyl)-1-(4-n-butoxybenzyl)-3-(2-methyl-4-chlorophenyl)urea] | 91.7

Same assay, conditions: rat adrenal ACAT; several concentrations

Row | IC50 [nM] | SMILES
13 | 820 | CCCCCCCN(Cc1ccc(CCCCO)cc1)C(=O)Nc1c(C)cc(Cl)cc1C [1-(n-Heptyl)-1-[4-(4-hydroxybutyl)benzyl]-3-(4-chloro-2,6-dimethylphenyl)urea]
14 | 1170 | CCCCCCCN(Cc1ccc(C(C)C)cc1)C(=O)Nc1ccc(F)cc1F [1-(n-Heptyl)-1-[4-(isopropyl)benzyl]-3-(2,4-difluorophenyl)urea]
15 | 1840 | CCCCCCCN(Cc1ccc(CC(C)C)cc1)C(=O)Nc1ccc(Cl)cc1C [1-(n-Heptyl)-1-[4-(isobutyl)benzyl]-3-(4-chloro-2-methylphenyl)urea]

The molecules below were run on cholesterol absorption (assay: Inhibition of cholesterol absorption in rats fed 1% cholesterol:0.5% cholic acid diet). Conditions: po, 336 h; rat; dose .01% of the diet, 2 weeks; read-out: LS (liver sterol), percentage of control values.
Assay type: in vivo, male Sprague-Dawley rats
Summary of the method: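 Male Sprague-Dawley rats (150-170 g) fed 1% cholesterol:0.5% cholic acid diet for 2 weeks with compound at 0.001, 0.003, 0.01 or 0.03% of diet. Serum cholesterol measured enzymatically; liver cholesterol from saponified large-lobe sample after petroleum ether extraction. Liver and serum sterol expressed as percent of untreated controls.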

Row | SMILES | response vs control in vivo at 0.01 % [%]
16 | CCCCCCCN(Cc1ccc(CCCCO)cc1)C(=O)Nc1c(C)cc(Cl)cc1C [1-(n-Heptyl)-1-[4-(4-hydroxybutyl)benzyl]-3-(4-chloro-2,6-dimethylphenyl)urea] | 26
17 | CCCCCCCN(Cc1ccc(C(C)C)cc1)C(=O)Nc1ccc(F)cc1F [1-(n-Heptyl)-1-[4-(isopropyl)benzyl]-3-(2,4-difluorophenyl)urea] | 64
18 | CCCCCCCN(Cc1ccc(CC(C)C)cc1)C(=O)Nc1ccc(Cl)cc1C [1-(n-Heptyl)-1-[4-(isobutyl)benzyl]-3-(4-chloro-2-methylphenyl)urea] | 56

Same assay, conditions: po, 336 h; rat; dose .01% of the diet, 2 weeks; read-out: SS (serum sterol), percentage of control values

Row | SMILES | response vs control in vivo at 0.01 % [%]
19 | CCCCCCCN(Cc1ccc(CCCCO)cc1)C(=O)Nc1c(C)cc(Cl)cc1C [1-(n-Heptyl)-1-[4-(4-hydroxybutyl)benzyl]-3-(4-chloro-2,6-dimethylphenyl)urea] | 24
20 | CCCCCCCN(Cc1ccc(C(C)C)cc1)C(=O)Nc1ccc(F)cc1F [1-(n-Heptyl)-1-[4-(isopropyl)benzyl]-3-(2,4-difluorophenyl)urea] | 77
21 | CCCCCCCN(Cc1ccc(CC(C)C)cc1)C(=O)Nc1ccc(Cl)cc1C [1-(n-Heptyl)-1-[4-(isobutyl)benzyl]-3-(4-chloro-2-methylphenyl)urea] | 62

Same assay, conditions: po, 336 h; rat; dose .03% of the diet, 2 weeks; read-out: LS (liver sterol), percentage of control values

Row | SMILES | response vs control in vivo at 0.03 % [%]
22 | CCCCCCCN(CCc1ccccc1)C(=O)Nc1ccc(C)cc1C [1-(n-Heptyl)-1-(2-phenylethyl)-3-(2,4-dimethylphenyl)urea] | 36
23 | CCCCOc1ccc(CN(Cc2ccccc2)C(=O)Nc2ccc(F)cc2F)cc1 [1-Benzyl-1-(4-n-butoxybenzyl)-3-(2,4-difluorophenyl)urea] | 22
24 | CCCCN(Cc1ccccc1)C(=O)Nc1ccc(C)cc1C [1-Benzyl-1-(n-butyl)-3-(2,4-dimethylphenyl)urea] | 65
25 | CCCCCOc1ccc(CN(Cc2ccc(CCCCC)cc2)C(=O)Nc2ccc(Cl)cc2Cl)cc1 [1-(4-n-Pentylbenzyl)-1-(4-n-pentyloxybenzyl)-3-(2,4-dichlorophenyl)urea] | 92
26 | CCCCCCCN(Cc1ccc(CCCC)cc1)C(=O)Nc1ccc(C(=O)OCC)cc1 [1-(n-Heptyl)-1-(4-n-butylbenzyl)-3-(4-carboethoxyphenyl)urea] | 84
27 | O=C(Nc1cc(Cl)c(Cl)cc1Cl)N(Cc1ccc(Cl)cc1)Cc1cccc2ccccc12 [1-(4-Chlorobenzyl)-1-(1-naphthylmethyl)-3-(2,4,5-trichlorophenyl)urea] | 97
28 | CCCCCCCN(Cc1ccc(CCCC)cc1)C(=O)Nc1cc(C)c(C)cc1C [1-(n-Heptyl)-1-(4-n-butylbenzyl)-3-(2,4,5-trimethylphenyl)urea] | 10
29 | CCCCc1ccc(CN(CCC(C)(C)C)C(=O)Nc2ccc(Cl)cc2C)cc1 [1-(3,3-Dimethylbutyl)-1-[4-(n-butyl)benzyl]-3-(4-chloro-2-methylphenyl)urea] | 13
30 | CCCCN(Cc1ccccc1)C(=O)Nc1c(Cl)cc(Cl)cc1Cl [1-Benzyl-1-( -n-butyl)-3-(2,4,6-trichlorophenyl)urea] | 32
31 | CCCCCCCN(Cc1ccc(OCCCC)cc1)C(=O)Nc1ccc(Cl)cc1C [1-(n-Heptyl)-1-(4-n-butoxybenzyl)-3-(2-methyl-4-chlorophenyl)urea] | 15
32 | CCCCCCCN(CCc1ccccc1)C(=O)Nc1ccc(Cl)cc1Cl [1-(n-Heptyl)-1-(2-phenylethyl)-3-(2,4-dichlorophenyl)urea] | 88
33 | CCCCCCCN(Cc1ccc(OCCCC)cc1)C(=O)Nc1cc(C)c(C)cc1C [1-(n-Heptyl)-1-(4-butyloxybenzyl)-3-(2,4,5-trimethylphenyl)urea] | 17

Same assay, conditions: po, 336 h; rat; dose .03% of the diet, 2 weeks; read-out: SS (serum sterol), percentage of control values

Row | SMILES | response vs control in vivo at 0.03 % [%]
34 | CCCCCCCN(CCc1ccccc1)C(=O)Nc1ccc(C)cc1C [1-(n-Heptyl)-1-(2-phenylethyl)-3-(2,4-dimethylphenyl)urea] | 57
35 | CCCCOc1ccc(CN(Cc2ccccc2)C(=O)Nc2ccc(F)cc2F)cc1 [1-Benzyl-1-(4-n-butoxybenzyl)-3-(2,4-difluorophenyl)urea] | 53
36 | CCCCN(Cc1ccccc1)C(=O)Nc1ccc(C)cc1C [1-Benzyl-1-(n-butyl)-3-(2,4-dimethylphenyl)urea] | 70
37 | CCCCCOc1ccc(CN(Cc2ccc(CCCCC)cc2)C(=O)Nc2ccc(Cl)cc2Cl)cc1 [1-(4-n-Pentylbenzyl)-1-(4-n-pentyloxybenzyl)-3-(2,4-dichlorophenyl)urea] | 91
38 | CCCCCCCN(Cc1ccc(CCCC)cc1)C(=O)Nc1ccc(C(=O)OCC)cc1 [1-(n-Heptyl)-1-(4-n-butylbenzyl)-3-(4-carboethoxyphenyl)urea] | 88
39 | O=C(Nc1cc(Cl)c(Cl)cc1Cl)N(Cc1ccc(Cl)cc1)Cc1cccc2ccccc12 [1-(4-Chlorobenzyl)-1-(1-naphthylmethyl)-3-(2,4,5-trichlorophenyl)urea] | 84
40 | CCCCCCCN(Cc1ccc(CCCC)cc1)C(=O)Nc1cc(C)c(C)cc1C [1-(n-Heptyl)-1-(4-n-butylbenzyl)-3-(2,4,5-trimethylphenyl)urea] | 33
41 | CCCCc1ccc(CN(CCC(C)(C)C)C(=O)Nc2ccc(Cl)cc2C)cc1 [1-(3,3-Dimethylbutyl)-1-[4-(n-butyl)benzyl]-3-(4-chloro-2-methylphenyl)urea] | 46
42 | CCCCN(Cc1ccccc1)C(=O)Nc1c(Cl)cc(Cl)cc1Cl [1-Benzyl-1-( -n-butyl)-3-(2,4,6-trichlorophenyl)urea] | 48
43 | CCCCCCCN(Cc1ccc(OCCCC)cc1)C(=O)Nc1ccc(Cl)cc1C [1-(n-Heptyl)-1-(4-n-butoxybenzyl)-3-(2-methyl-4-chlorophenyl)urea] | 53
44 | CCCCCCCN(CCc1ccccc1)C(=O)Nc1ccc(Cl)cc1Cl [1-(n-Heptyl)-1-(2-phenylethyl)-3-(2,4-dichlorophenyl)urea] | 81
45 | CCCCCCCN(Cc1ccc(OCCCC)cc1)C(=O)Nc1cc(C)c(C)cc1C [1-(n-Heptyl)-1-(4-butyloxybenzyl)-3-(2,4,5-trimethylphenyl)urea] | 32
